Measurements published in patent US6949581B2, “Water-soluble mono-PEGylated tetrapyrrole derivatives for photodynamic therapy and method of production” (CeramOptec Industries, Inc., priority 2003, dated 2005).
Where a name gives a salt, the structure may show the parent alone.

Experiments:
[1] = concentrated (>1%) solution cannot be generated by Nakazato technique; cited from earlier work
[2] = test system: HeLa (human cervix carcinoma cells); experiment: Phototoxicity in HeLa cells under irradiation at 662 nm, MTT assay; assay type: cell-based; details: 30-minute incubation, 10 J/cm^2 irradiation
Method: Illumination was performed at 662 nm (Ceralas PDT laser, BioLitec AG, Germany; 150 mW/cm^2, 5-20 J/cm^2) after a 30-minute incubation period. Cell survival was measured using the MTT assay. Values are expressed as percentages of illuminated, but non-incubated controls. Experiments were performed in octuplets.

[3] = 4° C. in the dark, cited from earlier work

C=Cc1c(C)c2cc3nc(c4c5[nH]c(cc6nc(cc1[nH]2)C(C)=C6CC)c(C)c5C(=O)[C@@H]4C(=O)OC)[C@@H](CCC(=O)O)[C@@H]3C [sodium salt of pheophorbide a (4), sodium salt of pheophorbide a]
concentration of injectable solution in water that can be generated [1]: ≤ 1%

salt of pheophorbide a (5) with N-methyl-D-glucamine
IC50 phototoxicity [2]: 8.0 µg/mL | IC90 phototoxicity [2]: 22.0 µg/mL

trisodium lysyl-chlorin p6
stable in an aqueous solution ([3]; aqueous solution): ≤ 24 h | stable in solid form ([3]; solid form): up to 4 months
